From publication PMC7397156, “Cytotoxic Phenanthrene, Dihydrophenanthrene, and Dihydrostilbene Derivatives and Other Aromatic Compounds from Combretum laxum” (Molecules, 2020)

What was measured:
[1] = DPPH-radical-scavenging assay; settings: 30 min, absorbance at 515 nm; mean ± SD, three independent experiments; read-out: Radical-scavenging activity against DPPH, IC50
Method: The radical-scavenging activities of compounds 1–6 were determined using DPPH (a stable free radical), employing the method of microdilution in 96-well microplates described by Zhang et al. and Yamaguchi et al., with some modifications. The assays were performed in triplicate, using caffeic acid as a standard compound and a DPPH solution in EtOH (200 µM) as a negative control. Solutions of samples in EtOH at 200 µM were serially diluted to 100, 50, 25, 12.5, and 6.25 µM. Each solution (100 µL) was mixed with 100 µL of DPPH solution. The samples were allowed to stand at room temperature in the dark for 30 min, after which their absorbances were recorded at 515 nm. The ability of test materials to scavenge DPPH radicals was calculated as follows: DPPH scavenging effect (%) = 100 (Acontrol − Asample)/Acontrol. Radical-scavenging activities were assessed on the basis of their IC50 values determined by linear regression.

NCI/ADR-RES = assay: SRB cytotoxicity assay, NCI/ADR-RES ovary carcinoma cells, multidrug-resistant phenotype; settings: Homo sapiens, read-out: Cytotoxicity IC50, NCI/ADR-RES
Method: (§2) To this end, a sulforhodamine B (SRB; purity ≥ 97%; Sigma, St. Louis, MO, USA) assay was performed, as described elsewhere [53, 54]. […] IC50 values were calculated from the differences in absorbance readings at 540 nm in untreated (negative control) and treated cells on a SpectraMax 190 microplate reader (Molecular Devices, San Jose, CA, USA) [53] through nonlinear regression analysis, using Origin 6.0 software (OriginLab, Northampton, MA, USA), and growth percentages were calculated as described elsewhere [53]. The data presented are the mean ± standard deviation of at least three independent cell preparations made in triplicate.

Hep2 = assay: SRB cytotoxicity assay, Hep2 larynx carcinoma cells; assay type: cell-based; settings: Homo sapiens, HEp-2, mean ± SD, three independent experiments
MCF-7 = assay: SRB cytotoxicity assay, MCF-7 breast carcinoma cells; settings: Homo sapiens, MCF7, read-out: Cytotoxicity IC50, MCF-7
Method: as §2

786-0 = assay: SRB cytotoxicity assay, 786-0 kidney carcinoma cells; settings: Homo sapiens, 786-0, read-out: Cytotoxicity IC50, 786-0
Method: as §2

UACC-62 = assay: SRB cytotoxicity assay, UACC-62 melanoma cells; settings: for IC50: Homo sapiens, UACC-62, read-out: Cytotoxicity IC50, UACC-62
Method: as §2

VERO cells = assay: SRB cytotoxicity assay, VERO nonneoplastic cells; assay type: cell-based, monkey
Source text: (§1) In addition, 4 inhibited the proliferation of UACC-62 and VERO cells in a dose-dependent manner.

[2] = SRB cytotoxicity assay, VERO nonneoplastic cells; assay type: cell-based, monkey; settings: monkey, VERO (monkey kidney) nonneoplastic cells; at 2.5 µg mL^−1
Source text: as §1

[3] = 0.25, 2.5 and 25 µg mL^−1, points above zero in growth curves (Figure 2)

Row | SMILES | IC50 [1] [µM] | IC50 (NCI/ADR-RES) [µM] | IC50 (Hep2) [µM] | IC50 (MCF-7) [µM] | IC50 (786-0) [µM] | IC50 (UACC-62) [µM] | Effect on VERO cell growth (VERO cells; [3]) | IC50 (VERO cells; Primates, Vero, SRB assay, read-out: IC50 on nontumor mammalian VERO cells) [µM] | viability at 2.5 µg mL^−1 [2] [%] | Effect on UACC-62 cell growth (UACC-62; [3]) | Concentration from which a cytocidal (cell death) effect is seen on UACC-62 cells (UACC-62; points below zero in growth curves (Figure 2)) [µg/mL]
1 | O=C(O)/C=C/c1ccc(O)c(O)c1 [Caffeic acid, caffeic acid, reference compound] | 10.9 ± 0.1 |  |  |  |  |  |  |  |  |  | 
2 | COc1cc(CCc2cc(OC)c(OC)c(Oc3cc(OC)c(OC)c(OC)c3)c2)ccc1O [Compound 1, 4′-Hydroxy-3,3′,4-trimethoxy-5-(3,4,5-trimethoxyphenoxy)-bibenzyl] | 56.5 ± 0.3 | 32.1 ± 4.31 | 218 ± 2.52 | 72.7 ± 4.87 | 113 ± 2.89 |  |  |  |  |  | 
3 | COc1cc2c(ccc3cc(O)cc(OC)c32)cc1O [Compound 2, 2,7-Dihydroxy-4,6-dimethoxyphenanthrene] | 20.4 ± 0.3 | 84 ± 5.4 | > 250 | 118 ± 9.29 | 73.3 ± 7.7 | > 250 |  |  |  |  | 
4 | COc1cc2ccc3cc(O)c(OC)c(OC)c3c2cc1O [Compound 3, 2,6-Dihydroxy-3,4,7-trimethoxyphenanthrene] | 45.6 ± 0.3 | 117 ± 2.66 |  | 226 ± 5.09 | 64.3 ± 9.62 | 247 ± 10.3 |  |  |  |  | 
5 | COc1cc2c(cc1O)CCc1cc(O)cc(OC)c1-2 [Compound 4, 2,7-dihydroxy-4,6-dimethoxy-9,10-dihydrophenanthrene] | 55.6 ± 0.4 | 58.8 ± 2.33 | 208 ± 17.1 | 47 ± 5.55 | 57 ± 9.29 | 2.59 ± 0.11 | cytostatic (growth inhibition) effect | 65.1 ± 4.51 | ~100 | cytostatic (growth inhibition) effect | ≥ 2.5
6 | COc1cc2c(cc1O)-c1c(cc(O)c(OC)c1OC)CC2 [Compound 5, 2,6-Dihydroxy-3,4,7-trimethoxy-9,10-dihydrophenanthrene] | 32.9 ± 0.3 | 212 ± 14.1 | 223 ± 2.81 | 42 ± 9.33 | 199 ± 6.75 | 222 ± 3.04 |  |  |  |  | 
7 | COc1cc2c(cc1O)-c1c(cc(O)cc1OC)CC2 [Compound 6, 2,6-dihydroxy-4,7-dimethoxy-9,10-dihydrophenanthrene] | 17.7 ± 0.3 | 303 ± 12.6 | 547.58 ± 0.11 | 160 ± 8.21 | 257 ± 6.51 | 268 ± 13.8 |  |  |  |  | 
